According to patent publication US12343350B2, “Istaroxime-containing intravenous formulation for the treatment of acute heart failure (AHF)” (Windtree Therapeutics, Inc., priority 2019, dated 2025):

Tested on: patients with Acute Decompensated Heart Failure
Assay: Clinical study of istaroxime 24 h i.v. infusion in Acute Decompensated Heart Failure, echocardiography
Type: in vivo, human
Method: Echocardiography was performed on patients according to international standards (see, for example, Lang R M et al., J Am Soc Echocardiogr 2005; 18(12):1440-63; Nagueh S F et al., Eur J Echocardiogr 2009; 10(2):165-93; Evangelista A et al., Eur J Echocardiogr 2008; 9(4):438-48). Echocardiography was performed by expert physicians or sonographers at the sites. Echocardiography was done at screening, baseline, 6 hours after infusion start, 24 hours after infusion start (just before the end of infusion), and 48 hours after infusion start.
The following parameters were recorded for each patient at each timepoint and centrally measured by the CoreLab: • 1. Cardiac dimension measures: • a. Left ventricle end diastolic diameter (EDD): measured with M-mode echocardiography at the level of mitral valve (MV) leaflets from parasternal long axis view (PLAX) (normal range [NR]: 42-59 mm males and 39-53 mm females); • b. Left ventricle end systolic diameter (ESD): measured with M-mode echocardiography at the level of mitral valve (MV) leaflets from PLAX (NR: 25-35 mm); • c. Left ventricle end diastolic volume (EDV): measured with M-mode echocardiography at the level of mitral valve (MV) leaflets from PLAX (NR: 67-155 mL males and 56-104 mL females); • d. Left ventricle end systolic volume (ESV): measured with M-mode echocardiography at the level of mitral valve (MV) leaflets from PLAX (NR: 22-58 mL males and 19-49 mL females); • e. Left atrium diameter (LAD): measured at end-ventricular systole with M-mode echocardiography from PLAX. (NR: 30-40 mm males and 27-38 mm females) • f. Left atrium area (LAA): measured from apical four chamber view ([…]); and • g. Left atrium volume (LAV): derived from area-length measured from apical four chamber view (NR: 18-58 mL males and 22-52 mL females). • 2. Left ventricle diastolic function parameters: • a. E wave: measured from mitral valve pulsed wave Doppler, is the peak velocity of early filling. […] A wave: measured from mitral valve pulsed wave Doppler is the peak velocity of late atrial filling. Not evaluable in patients with AF; • c. E wave deceleration time (EDT): measured from mitral valve pulsed wave Doppler represent the slope of the descending part of E wave; • d. E/A ratio: determines the type of diastolic filling pattern (normal E/A=1-2 and EDT=150-200 ms, abnormal relaxation E/A<1 and […], pseudonormal E/A=0.8-1.5; restrictive […] and EDT<160 ms). Not evaluable in patients with AF; • e. Ea: measured with tissue Doppler method at the lateral and septal side of the mitral annulus from apical four chamber view is the early diastolic velocity. The value has been calculated as the average between Ea lateral and Ea septal. ([…]) (see Nagueh S F et al., Eur J Echocardiogr. 2009; 10(2):165-93); • f. Aa: measured with tissue Doppler method at the lateral and septal side of the mitral annulus from apical four chamber view is the late atrial diastolic velocity. The value has been calculated as the average between Aa lateral and Aa septal. Not evaluable in patients with AF; and • g. E/Ea ratio: this is a derived measure from E and Ea value. This is highly correlated with left ventricle filling pressure and with prognosis in patients with HF. (NR: <13) (see Nagueh S F et al., supra). • 3. Left ventricle systolic function parameters: • a. Left ventricle ejection fraction (LVEF): measured with Simpson biplane method according to international recommendations from apical four chamber view and apical two chamber view. ([…]) (see Lang R M et al., J Am Soc Echocardiogr. 2005; 18(12):1440-63); and • b. Sa: measured with tissue Doppler method at the lateral and septal side of the mitral annulus from apical four chamber view. The value has been calculated as the average between Sa lateral and Sa septal. […] Overall cardiac contraction parameters: • a. […]

[1] = 0.5 μg/kg/min i.v. for 24 h, at 48 hours
[2] = 0.5 μg/kg/min i.v., at 6 hours of infusion
[3] = 0.5 μg/kg/min i.v., at 24 hours of infusion
[4] = 1.0 μg/kg/min i.v. for 24 h, at 48 hours
[5] = 1.0 μg/kg/min i.v., at 6 hours of infusion
[6] = 1.0 μg/kg/min i.v., at 24 hours of infusion

C[C@]12CCC(=NOCCN)C[C@@H]1C(=O)C[C@@H]1[C@@H]2CC[C@]2(C)C(=O)CC[C@@H]12 [Istaroxime, (3Z,5a)-3-[(2-aminoethoxy)imino]androstane-6,17-dione]
CI change [1]: 0.191 ± 0.426 l/min/m^2 | CO change [1]: 0.350 ± 0.788 L/min | E/A ratio change [1]: −0.278 ± 1.043 | E/e′ ratio change [1]: −2.570 ± 3.654 | LVEF change [1]: 1.28 ± 3.693% | SV change [1]: 4.815 ± 9.832 ml/beat | SVI change [1]: 2.762 ± 5.603 ml/beat/m^2 | Sa change [1]: 0.224 ± 0.811 cm/s | A wave change [2]: 1.76 ± 13.572 cm/s | CI change [2]: 0.209 ± 0.445 l/min/m2 | CO change [2]: 0.385 ± 0.843 L/min | E wave change [2]: -3.33 ± 14.764 cm/s | E/A ratio change [2]: −0.286 ± 0.866 | E/e′ ratio change [2]: −3.183 ± 5.628 | EDT change [2]: 6.83 ± 47.921 ms | LAA change [2]: −0.33 ± 1.885 cm^2 | LAV change [2]: -1.16 ± 11.265 mL | S Right V change [2]: 1.25 ± 2.185 cm/s | SV change [2]: 7.724 ± 11.752 ml/beat | SVI change [2]: 4.198 ± 6.218 ml/beat/m2 | Sa Left V change [2]: 0.613 ± 1.035 cm/s | e′ change [2]: 0.61 ± 1.010 cm/s | A wave change [3]: 5.13 ± 10.990 cm/s | CI change [3]: 0.264 ± 0.369 l/min/m2 | CO change [3]: 0.486 ± 0.696 L/min | E wave change [3]: -8.14 ± 17.640 cm/s | E/A ratio change [3]: −0.647 ± 0.812 | E/e′ ratio change [3]: −4.548 ± 4.754 | EDT change [3]: 12.88 ± 54.954 ms | LAA change [3]: −1.70 ± 2.463 cm^2 | LAV change [3]: -7.94 ± 13.269 mL | S Right V change [3]: 1.10 ± 1.780 cm/s | SV change [3]: 9.725 ± 12.192 ml/beat | SVI change [3]: 5.333 ± 6.664 ml/beat/m2 | Sa Left V change [3]: 0.679 ± 0.907 cm/s | e′ change [3]: 0.94 ± 1.089 cm/s | CI change [4]: 0.205 ± 0.407 l/min/m^2 | CO change [4]: 0.368 ± 0.735 L/min | E/A ratio change [4]: −0.356 ± 0.967 | E/e′ ratio change [4]: −2.218 ± 3.193 | LVEF change [4]: 2.06 ± 4.975% | SV change [4]: 5.203 ± 8.078 ml/beat | SVI change [4]: 2.913 ± 4.572 ml/beat/m^2 | Sa change [4]: 0.257 ± 0.771 cm/s | A wave change [5]: 5.56 ± 17.280 cm/s | CI change [5]: 0.140 ± 0.434 l/min/m2 | CO change [5]: 0.228 ± 0.760 L/min | E wave change [5]: -9.13 ± 17.464 cm/s | E/A ratio change [5]: −0.317 ± 0.898 | E/e′ ratio change [5]: −2.028 ± 3.652 | EDT change [5]: 20.37 ± 50.849 ms | LAA change [5]: −0.84 ± 2.421 cm^2 | LAV change [5]: -4.92 ± 14.390 mL | S Right V change [5]: 2.00 ± 1.907 cm/s | SV change [5]: 7.269 ± 8.134 ml/beat | SVI change [5]: 4.187 ± 4.641 ml/beat/m2 | Sa Left V change [5]: 0.908 ± 0.936 cm/s | e′ change [5]: 0.01 ± 1.154 cm/s | A wave change [6]: 11.10 ± 16.498 cm/s | CI change [6]: 0.140 ± 0.443 l/min/m2 | CO change [6]: 0.239 ± 0.786 L/min | E wave change [6]: -14.24 ± 24.416 cm/s | E/A ratio change [6]: −0.722 ± 1.068 | E/e′ ratio change [6]: −3.191 ± 2.623 | EDT change [6]: 9.79 ± 52.212 ms | LAA change [6]: −2.56 ± 2.972 cm^2 | LAV change [6]: -13.81 ± 17.198 mL | S Right V change [6]: 1.55 ± 2.012 cm/s | SV change [6]: 9.339 ± 8.875 ml/beat | SVI change [6]: 5.318 ± 4.955 ml/beat/m2 | Sa Left V change [6]: 0.803 ± 1.023 cm/s | e′ change [6]: 0.91 ± 1.792 cm/s
